Results from patent publication US20070292492A1, “PHARMACEUTICAL FORMULATIONS FOR IONTOPHORETIC TETRACYCLINE ANTIBIOTIC DELIVERY” (priority 2006, published 2007).
Counter-ions that a name gives are not always drawn. Like-named read-outs stand apart in the source and are kept apart here.

What was measured:
[1] = assay type: in vitro ADME, hairless rat
Procedure: • Freshly excised full thickness hairless rat skin (approximately 1 mm thick) was mounted in between the donor and receptor compartments of the horizontal diffusion cells with the stratum corneum facing the donor compartment. • The receptor compartment contained phosphate buffer (4 ml) at pH 7.4, and the donor compartment contained one of the following tetracycline hydrochloride solutions (4 ml): water (pH 2.1, 37 mg/ml), citrate buffer (pH 3.0, 9 mg/ml), phosphate buffer (pH 8.0, 0.7 mg/ml), or Teorell buffer (pH 8.3, 5.9 mg/ml, pH 11.9: 20 mg/ml). • The apparatus was maintained at 32° C., with constant stirring in both the donor and receptor compartments using magnetic stir bars to maintain sink conditions. • Silver/Silver chloride electrodes were used for iontophoresis. The area of skin exposed to the donor was 0.64 cm^2. • Current densities of 0.2 and 0.3 mA/cm^2 were applied for 1 h; and current density of 0.4 mA/cm^2 was applied for 30 min, 1 h and 2 h. Samples were collected for a period of 10 h. Both anodal and cathodal iontophoresis were performed. • At predetermined intervals, 0.5 ml of sample was collected from the receptor chamber and replenished with 0.5 ml of phosphate buffer (pH7.4). Analysis of Tetracycline Hydrochloride: • Samples from the receptor chamber were analyzed for the amount of tetracycline hydrochloride using a Shimadzu HPLC with a reverse phase column (Phenomenex, Luna C18 column with 5μ pore size). • The composition of the mobile phase used was 0.01N oxalic acid and acetonitrile (75:25) at a flow rate of 0.8 ml/min using a detection wavelength of 360 nm. Results: • The cumulative amount of drug permeating through the skin passively at the end of 10 h was 1.7±0.45 μg/cm^2 (FIG. 1). • Iontophoresis improved the delivery of the drug across the skin. i) The cumulative amount permeated through the skin at the end of 10 h by anodal iontophoresis for 1 h was 11.18±2.02 μg/cm^2. ii) The cumulative amount of the drug delivered at the end of 10 h by cathodal iontophoresis for 1 h was 19.65±6.9 μg/cm^2 (FIGS. 1 and 2). The current density used was 0.4 mA/cm^2 in both the cases. • The cumulative amount of drug permeated through the skin increased with an increase in the current density. The cumulative amount of the drug permeated through the skin over 10 hours increased from 5.85±0.72 μg/cm^2 to 19.65±6.9 μg/cm^2 with an increase in the current density from 0.2 mA/cm^2 to 0.4 mA/cm^2 (FIG. 3). • The amount of drug permeated through the skin increased with an increase in the duration of current application. […] For a donor concentration of 10 mg/ml, 22.11 μg/cm^2 of tetracycline hydrochloride permeated through the skin as compared to 8.25 μg/cm^2 delivered from a donor concentration of 2.5 mg/ml (FIG. 5). For all the above studies except anodal iontophoresis, tetracycline hydrochloride solution in borate buffer at pH 9.4 was employed. For anodal iontophoresis, tetracycline hydrochloride in citrate buffer at pH 3.0 has been used.

[2] = In vivo intracutaneous microdialysis with cathodal iontophoresis; parameters: species or system hairless rat; settings: 10 mg/mL, pH ~9.3; cathodal iontophoresis 200-400 μA/cm^2 for 0.5-4 hours; 4 hours of application time
Procedure: In vivo microdialysis studies were undertaken to determine the effect of current and time on the transdermal delivery of tetracycline using iontophoresis. The study placed a tetracycline formulation (10 mg/mL, pH ˜9.3) in a cartridge designed for iontophoresis. […] Cathodal iontophoresis current was varied from 200-400 μA/cm^2 for a period of 0.5-4 hours. The microdialysis dialysate samples collected were analyzed using HPLC. Potential skin irritation was monitored using chromameter, laser Doppler velocimetry (LDV) and transepidermal water loss (TEWL).

Compound | amount of tetracycline hydrochloride permeated through the skin ([1]; hairless, rat, 2.5 mg/ml, pH 9.4) [μg/cm^2] | amount of tetracycline hydrochloride permeated through the skin ([1]; hairless, rat, 10 mg/ml, pH 9.4) [μg/cm^2] | cumulative amount permeated through the skin at the end of 10 h by anodal iontophoresis ([1]; hairless, rat, 10 h, 9 mg/ml, pH 3) [μg/cm^2] | cumulative amount of drug permeating through the skin passively at the end of 10 h ([1]; hairless, rat, 10 h, pH 9.4) [μg/cm^2] | cumulative amount of the drug delivered at the end of 10 h by cathodal iontophoresis ([1]; hairless, rat, 10 h, pH 9.4) [μg/cm^2] | cumulative amount of the drug permeated through the skin over 10 hours ([1]; hairless, rat, 10 h, pH 9.4) [μg/cm^2] | cumulative amount of drug permeated through the skin, cathodal iontophoresis compared to anodal iontophoresis or passive delivery ([1]; pH 9.4) | tetracycline concentration in the skin by microdialysis as a function of duration of current application [2]
CN(C)[C@@H]1C(O)=C(C(N)=O)C(=O)[C@@]2(O)C(O)=C3C(=O)c4c(O)cccc4[C@@](C)(O)[C@H]3C[C@@H]12 [tetracycline hydrochloride] | 8.25 | 22.11 | 11.18±2.02 | 1.7±0.45 | 19.65±6.9 | 5.85±0.72 | significantly increased | –
CN(C)[C@@H]1C(O)=C(C(N)=O)C(=O)[C@@]2(O)C(O)=C3C(=O)c4c(O)cccc4[C@@](C)(O)[C@H]3C[C@@H]12 [tetracycline] | – | – | – | – | – | – | – | highest amount of tetracycline concentration
